From PMC7411710, “Biocatalysis of D,L-Peptide Nanofibrillar Hydrogel” (Molecules, 2020)
Each block holds one compound with its values, some of them ahead of it. Non-standard residues stand in square brackets, D forms with d. Residues, ends and D or L forms follow the SMILES beside them.

Tests used:
[1] = water solubility (observation); format: physicochemical; conditions: neutral pH
[2] = oscillatory rheometry; format: physicochemical; conditions: 10 mM; 1 Hz; 25 °C
Method: His–Leu–^DLeu–Ile–His–Leu–^DLeu–Ile (Scheme 1) was synthesized in solid phase and purified by reverse-phase HPLC, following published procedures. Peptide identity and purity was confirmed by ^1H-NMR and electrospray ionization (ESI)-MS (see Supplementary Materials). […] A pH change to neutral was then used to trigger fibrillization, which, at higher concentrations, led to the formation of self-supportive hydrogels, with a minimum gelling concentration (mgc) of 10 mM. The viscoelastic properties of the hydrogel were assessed by oscillatory rheometry (see Supplementary Materials). At mgc, the peptide gelled immediately and reached a G′ of 1 kPa, which remained stable over time. Frequency sweeps confirmed G′ > G″, with both values being independent of applied frequency, as expected for a stable hydrogel. Stress sweeps confirmed a linear viscoelastic region until 1 Pa, with a gel-to-sol transition occurring above 10 Pa.
Dynamic time sweep rheological analysis was conducted on a Malvern Kinexus Ultra Plus Rheometer (Alfatest, Milan, Italy) with a 20-mm stainless-steel parallel plate geometry. […] Samples were prepared in situ and immediately analyzed with a gap of 1 mm. Time sweeps were recorded using a frequency of 1 Hz and a controlled stress of 0.50 Pa. Frequency sweeps were recorded using a controlled stress of 0.50 Pa, and then stress sweeps were recorded using a frequency of 1 Hz.

[3] = pH 7.4; without Zn2+; cited from earlier work
Description: Table 2 Comparison of catalytic performance with literature data on short peptides without Zn^2+. | column: kcat/KM (s^−1M^−1)

[4] = cited from earlier work
Description: However, at present, it is still not possible to predict exactly the performance of a de novo designed peptide. Amongst the various approaches to achieve a self-assembling short peptide, an attractive strategy features the inclusion of both D- and L-amino acids at specific positions along a heterochiral sequence, whereby nanostructured hydrogels can be formed even with just three amino acids, while their homochiral isomers typically precipitate in water. These supramolecular systems feature amphipathic assemblies, whereby the different stereoconfiguration allows displaying hydrophobic s ...

water solubility [1]: limited water solubility
gel-to-sol transition (stress sweep) [2]: above 10 Pa
Compound: CC[C@H](C)[C@H](NC(=O)[C@@H](CC(C)C)NC(=O)[C@H](CC(C)C)NC(=O)[C@H](Cc1c[nH]cn1)NC(=O)[C@@H](NC(=O)[C@@H](CC(C)C)NC(=O)[C@H](CC(C)C)NC(=O)[C@@H](N)Cc1c[nH]cn1)[C@@H](C)CC)C(=O)O [His–Leu–^DLeu–Ile–His–Leu–^DLeu–Ile] (H-HL[dL]IHL[dL]I-OH)

Compound: H2KLLLAAA(Nε-palmytoyl)K-NH2 [peptide amphiphile reported by Guler and Stupp]
kcat/KM [3]: 20 s^−1M^−1

Compound: HSGQQKFQFQFEQQ [self-assembling His peptide, literature catalyst]
kcat/KM [3]: 0.09 s^−1M^−1

Compound: His–^DPhe–^DPhe
concentration of hydrogel formation [4]: 50000 µM
